Reference: PMC4861463, “A Molecular Switch Abrogates Glycoprotein 100 (gp100) T-cell Receptor (TCR) Targeting of a Human Melanoma Antigen” (The Journal of Biological Chemistry, 2016)
“Also recorded” adds a separate entry of the source.

Assays:
[1] = biological target: PMEL17 TCR (TRAV21 TRBV7-3); assay: SPR affinity analysis of PMEL17 TCR binding to HLA-A*0201-peptide complexes; parameters: species or system Human; details: SPR equilibrium analysis, triplicate; for PMEL17 TCR (TRAV21 TRBV7-3), affinity KD: biotinylated HLA-A*0201-peptide complex (500–600 RU) on streptavidin CM5 chip, 9–10 serial dilutions of soluble TCR
[2] = biological target: gp100 TCR (TRAV17 TRBV19); assay: SPR affinity analysis of gp100 TCR binding to HLA-A*0201-peptide complexes; parameters: species or system Human; details: SPR equilibrium analysis, triplicate; for gp100 TCR (TRAV17 TRBV19), affinity KD: biotinylated HLA-A*0201-peptide complex (500–600 RU) on streptavidin CM5 chip, 9–10 serial dilutions of soluble TCR
[3] = test system: gp100 TCR-transduced CD8+ T-cells; assay: MIP-1β production by ELISA after stimulation with peptide-pulsed T2 target cells; assay type: cell-based, Human; details: peptide titration; 6 × 10^4 T2 cells pulsed 1 h + 3 × 10^4 T-cells, overnight; ELISA of supernatant; duplicate; Fig. 6A
[4] = test system: gp100 TCR-transduced CD8+ T-cells; assay: 4-h 51Cr release cytotoxicity assay against peptide-pulsed T2 targets; assay type: cell-based, Human; details: 37 °C, effector/target ratio 5, 51Cr-labelled T2 cells, peptide titration, duplicate, Fig. 6B
[5] = test system: gp100-specific TCR-transfected human T-cells; details: cited from earlier work
Excerpt: Thus, in order to study the individual contribution of the peptide residues invo ... || We also provide insight into the role of each residue in gp100^280–288 during TCR recognition by performing an alanine scan mutagenesis with two different gp100^280–288-specific αβTCRs. […] These observations are consisten ...

Sequence	PMEL17 TCR (TRAV21 TRBV7-3), affinity KD [1]	PMEL17 TCR (TRAV21 TRBV7-3), affinity KD ([1]; listed as A2-YLE-3A)	gp100 TCR (TRAV17 TRBV19), affinity KD [2]	gp100 TCR (TRAV17 TRBV19), affinity KD ([2]; listed as A2-YLE-3A)	MIP-1β production [3]	specific lysis of peptide-pulsed target cells [4]	agonist activity for a different gp100-specific TCR [5]	Kd ([1]; read-out: PMEL17 TCR (TRAV21 TRBV7-3), affinity KD, biotinylated HLA-A*0201-peptide complex on streptavidin CM5 chip) [mM]	Kd ([2]; read-out: gp100 TCR (TRAV17 TRBV19), affinity KD, biotinylated HLA-A*0201-peptide complex on streptavidin CM5 chip) [mM]
YLAPGPVTA [YLE-3A]	complete absence of measurable binding; also recorded: No binding	completely abrogated binding	No binding	completely abrogated binding	No MIP-1β production	no cytotoxic T lymphocyte-mediated lysis	null agonist	–	–
YLEPAPVTA [YLE-5A]	–	–	–	–	No MIP-1β production	no cytotoxic T lymphocyte-mediated lysis	–	> 1	> 1
